In US4584377A, “Novel Fredericamycin A derivatives” (SS Pharmaceutical Co., Ltd., priority 1983, dated 1986):
≈ marks a conversion by molar mass, not a printed value.

Key:
Ehrlich carcinoma = assay: Antitumor effect, survival of tumor-inoculated mice; type: in vivo, ICR mice; details: intraperitoneally, once a day for 10 days
[1] = system: Staphylococcus epidermidis ATCC 12228; assay: MIC, antibacterial activity (agar culture); type: cell-based; details: ATCC12228, 37° C., 18-20 hours, Mueller-Hinton agar, read-out: Minimum inhibitory concentration MIC
[2] = system: Piricularia oryzae IAM 5016; assay: microbe, parasite or virus in culture; type: cell-based; details: 120 h; read-out: Minimum inhibitory concentration MIC
physchem = type: physicochemical; details: 10 μg/ml in dimethylsulfoxide/physiological saline; for Percentage remainder: 0 hr.; for remaining at 3 h / remaining at 6 h / remaining at 24 h / remaining at 48 h / remaining at 72 h: read-out: Percentage remainder
Method: The stability of some Fredericamycin A derivatives and Fredericamycin A in their aqueous solutions were tested in accordance with the following procedures.
The test compounds were individually dissolved in dimethylsulfoxide, followed by dilution of the resulting solutions with physiological saline to adjust the final concentrations of the test compounds and Fredericamycin to 10 μg/ml respectively. The thus-prepared test solutions were then subjected to high performance liquid chromatography after predetermined time intervals to measure the percentage remainders of the test compounds.

mouse leukemia P-388 = assay: Antitumor effect, survival of tumor-inoculated mice; type: in vivo, CDF1 mice; details: intraperitoneally, once a day for 10 days
Method: (§1) Antitumor effects of some Fredericamycin A derivatives against Ehrlich carcinoma, Meth-A fibrosarcoma and mouse leukemia P-388 were tested in accordance with the following procedures. Antitumor effects against Ehrlich carcinoma and Meth-A fibrosarcoma are expressed by percentage of mean survival time of test and control animals. Antitumor effects against P-388 are expressed by percentage of median survival time of test and control animals.
(§2) (ii) Meth-A fibrosarcoma and mouse leukemia P-388:
(§3) 1×10^6 tumor cells were inoculated to CDF1 mice (.male., Charles River Japan Inc.) intraperitoneally. Each tested compound was given intraperitoneally once a day for 10 days from 1 day after tumor inoculation.

Meth-A fibrosarcoma = assay: as above; type: in vivo, CDF1 mice; details: intraperitoneally, once a day for 10 days
Method: as §1, §2, §3

[3] = Mus musculus, ip, 240 h, 0.5 mg/kg/day, read-out: percentage of mean survival time of test and control animals
[4] = Mus musculus, ip, 240 h, 1.0 mg/kg/day, read-out: percentage of mean survival time of test and control animals
[5] = Mus musculus, ip, 240 h, 2.0 mg/kg/day, read-out: percentage of mean survival time of test and control animals

With `C/C=C/C=C/c1cc2cc3c(c(O)c2c(=O)[nH]1)C1(CC3)C(=O)c2c(OC(=O)CC(C)C)c3c(c(OC(=O)CC(C)C)c2C1=O)C(=O)C(OC)=CC3=O` (stereo not drawn) [Compound 2, Fredericamycin A diisovalerate] the response vs control in vivo at 0.5 mg/kg/day (Ehrlich carcinoma; [3]) was 120%, the response vs control in vivo at 1 mg/kg/day (Ehrlich carcinoma; [4]) was greater than 168% and the response vs control in vivo at 2 mg/kg/day (Ehrlich carcinoma; [5]) was greater than 229%.

For `C/C=C/C=C/c1cc2cc3c(c(O)c2c(=O)[nH]1)C1(CC3)C(=O)c2c(OC(=O)c3ccc(C)cc3)c3c(c(OC(=O)c4ccc(C)cc4)c2C1=O)C(=O)C(OC)=CC3=O` (stereo not drawn) [Compound 3, Fredericamycin A di-p-methylbenzoate], the MIC [1] was 25 µg/mL (≈ 32.2 µM) and the MIC [2] was 6.25 µg/mL (≈ 8.06 µM).

With `C/C=C/C=C/c1cc2cc3c(c(O)c2c(=O)[nH]1)C1(CC3)C(=O)c2c(OC(=O)CC)c3c(c(OC(=O)CC)c2C1=O)C(=O)C(OC)=CC3=O` (stereo not drawn) [Compound 4] the “percentage of mean survival time of test and control animals” value (Ehrlich carcinoma; 0.5 mg/kg/day) was “over 282%”, the “percentage of mean survival time of test and control animals” value (Ehrlich carcinoma; 1.0 mg/kg/day) was “over 288%” and the “percentage of mean survival time of test and control animals” value (Ehrlich carcinoma; 2.0 mg/kg/day) was 50%.

Molecule `C/C=C/C=C/c1cc2cc3c(c(O)c2c(=O)[nH]1)C1(CC3)C(=O)c2c(OC(=O)CCCCC)c3c(c(OC(=O)CCCCC)c2C1=O)C(=O)C(OC)=CC3=O` (stereo not drawn) [Compound 5] has a Percentage remainder (physchem) of 100%, a remaining at 3 h (physchem) of 93.2% and a remaining at 6 h (physchem) of 88%. The remaining at 24 h (physchem) was 67.6%, the remaining at 48 h (physchem) was 57.8% and the remaining at 72 h (physchem) was 47.9%. For the same molecule, the MIC [1] was 25 µg/mL (≈ 34 µM), the MIC [2] was 0.39 µg/mL (≈ 0.53 µM) and the “percentage of mean survival time of test and control animals” value (Ehrlich carcinoma; 0.5 mg/kg/day) was “over 247%”. The “percentage of mean survival time of test and control animals” value (Ehrlich carcinoma; 1.0 mg/kg/day) was “over 229%” and the “percentage of mean survival time of test and control animals” value (Ehrlich carcinoma; 2.0 mg/kg/day) was “over 256%”.

With `C/C=C/C=C/c1cc2cc3c(c(O)c2c(=O)[nH]1)C1(CC3)C(=O)c2c(OC(=O)CCCCCCCCCCC)c3c(c(OC(=O)CCCCCCCCCCC)c2C1=O)C(=O)C(OC)=CC3=O` (stereo not drawn) [Compound 7] the MIC [1] was 25 µg/mL (≈ 27.7 µM), the MIC [2] was 1.56 µg/mL (≈ 1.73 µM) and the “percentage of mean survival time of test and control animals” value (Ehrlich carcinoma; 0.5 mg/kg/day) was 104%. For the same molecule, the “percentage of mean survival time of test and control animals” value (Ehrlich carcinoma; 1.0 mg/kg/day) was 96% and the “percentage of mean survival time of test and control animals” value (Ehrlich carcinoma; 2.0 mg/kg/day) was 194%.

Work on `C/C=C/C=C/c1cc2cc3c(c(O)c2c(=O)[nH]1)C1(CC3)C(=O)c2c(OC(=O)c3ccccc3)c3c(c(OC(=O)c4ccccc4)c2C1=O)C(=O)C(OC)=CC3=O` (stereo not drawn) [Compound 8] yielded a response vs control in vivo at 0.5 mg/kg/day (Ehrlich carcinoma; [3]) of 166%, a response vs control in vivo at 1 mg/kg/day (Ehrlich carcinoma; [4]) greater than 199% and a response vs control in vivo at 2 mg/kg/day (Ehrlich carcinoma; [5]) of 97%.

Molecule `C/C=C/C=C/c1cc2cc3c(c(O)c2c(=O)[nH]1)C1(CC3)C(=O)c2c(OC(=O)c3ccc(OC)cc3)c3c(c(OC(=O)c4ccc(OC)cc4)c2C1=O)C(=O)C(OC)=CC3=O` (stereo not drawn) [Compound 10] has an MIC [1] of 12.5 µg/mL (≈ 15.5 µM), an MIC [2] of 1.56 µg/mL (≈ 1.93 µM) and a response vs control in vivo at 0.5 mg/kg/day (Ehrlich carcinoma; [3]) of 105%. It also gave a response vs control in vivo at 1 mg/kg/day (Ehrlich carcinoma; [4]) of 171% and a response vs control in vivo at 2 mg/kg/day (Ehrlich carcinoma; [5]) greater than 202%.

`C/C=C/C=C/c1cc2cc3c(c(O)c2c(=O)[nH]1)C1(CC3)C(=O)c2c(OC(=O)c3ccc(Cl)cc3)c3c(c(OC(=O)c4ccc(Cl)cc4)c2C1=O)C(=O)C(OC)=CC3=O` (stereo not drawn) [Compound 11] gave a response vs control in vivo at 0.5 mg/kg/day (Ehrlich carcinoma; [3]) greater than 139%, a response vs control in vivo at 1 mg/kg/day (Ehrlich carcinoma; [4]) greater than 198% and a response vs control in vivo at 2 mg/kg/day (Ehrlich carcinoma; [5]) greater than 260%.

In the case of `CCCCCc1cc2cc3c(c(O)c2c(=O)[nH]1)C1(CC3)C(=O)c2c(c(OC(C)=O)c3c(OC(C)=O)c(OC)cc(OC(C)=O)c3c2OC(C)=O)C1=O` (stereo not drawn) [Compound 12, leucotetraacetyltetrahydrofredericamycin A], the “percentage of median survival time of test and control animals” value (mouse leukemia P-388; 2.0 mg/kg/day) is reported as 142%, the “percentage of median survival time of test and control animals” value (mouse leukemia P-388; 4.0 mg/kg/day) is reported as 146% and the “percentage of median survival time of test and control animals” value (mouse leukemia P-388; 8.0 mg/kg/day) is reported as 152%. The Percentage remainder (physchem) was 100%, the remaining at 3 h (physchem) was 99% and the remaining at 6 h (physchem) was 98.3%. It also gave a remaining at 24 h (physchem) of 97.1%, a remaining at 48 h (physchem) of 95.7% and a remaining at 72 h (physchem) of 94.4%. For the same molecule, the response vs control in vivo at 2 mg/kg/day (Ehrlich carcinoma; [5]) was 116%, the response vs control in vivo at 4 mg/kg/day (Ehrlich carcinoma; Mus musculus, ip, 240 h, 4.0 mg/kg/day, read-out: percentage of mean survival time of test and control animals) was 136% and the response vs control in vivo at 8 mg/kg/day (Ehrlich carcinoma; Mus musculus, ip, 240 h, 8.0 mg/kg/day, read-out: percentage of mean survival time of test and control animals) was greater than 203%.

With `CCCCCc1cc2cc3c(c(O)c2c(=O)[nH]1)C1(CC3)C(=O)c2c(O)c3c(c(O)c2C1=O)C(=O)C(OC)=CC3=O` (stereo not drawn) [Compound 17, tetrahydrofredericamycin A] the “percentage of mean survival time of test and control animals” value (Meth-A fibrosarcoma; 0.25 mg/kg/day) was 102%, the “percentage of mean survival time of test and control animals” value (Meth-A fibrosarcoma; 0.5 mg/kg/day) was 129% and the “percentage of mean survival time of test and control animals” value (Meth-A fibrosarcoma; 1.0 mg/kg/day) was 164%. The “percentage of mean survival time of test and control animals” value (Meth-A fibrosarcoma; 2.0 mg/kg/day) was 232%, the “percentage of median survival time of test and control animals” value (mouse leukemia P-388; 2.0 mg/kg/day) was 130% and the “percentage of median survival time of test and control animals” value (mouse leukemia P-388; 4.0 mg/kg/day) was 143%. The “percentage of median survival time of test and control animals” value (mouse leukemia P-388; 8.0 mg/kg/day) was 152%, the response vs control in vivo at 0.125 mg/kg/day (Ehrlich carcinoma; Mus musculus, ip, 240 h, 0.125 mg/kg/day, read-out: percentage of mean survival time of test and control animals) was 187% and the response vs control in vivo at 0.25 mg/kg/day (Ehrlich carcinoma; Mus musculus, ip, 240 h, 0.25 mg/kg/day, read-out: percentage of mean survival time of test and control animals) was 248%. For the same molecule, the response vs control in vivo at 0.5 mg/kg/day (Ehrlich carcinoma; [3]) was 250%.

With `CCCCCCCCCCCC(=O)Oc1c2c(c(OC(=O)CCCCCCCCCCC)c3c1C(=O)C1(CCc4cc5cc(CCCCC)[nH]c(=O)c5c(O)c41)C3=O)C(=O)C(OC)=CC2=O` (stereo not drawn) [Compound 21] the Percentage remainder (physchem) was 100%, the remaining at 3 h (physchem) was 95.3% and the remaining at 6 h (physchem) was 92.2%. For the same molecule, the remaining at 24 h (physchem) was 87.3%, the remaining at 48 h (physchem) was 80.5% and the remaining at 72 h (physchem) was 74.8%.
